For this test, the system named is 699152-130-R-J1-PDC complex spheroid viability. Description: Anticancer human tumor 699152-130-R-J1-PDC patient-derived pancreatic carcinoma cell line growth inhibition [POLQ]. As to conditions: for viability, T/C: stronger effect = lower value. How it is done:
Multicellular complex tumor spheroid response to Polymerase (POL) inhibitors (novobiocin, ART-558, RP6685) in combination with a variety of drugs and investigational agents in selected tumor cell lines
The POL inhibitors (novobiocin, ART-558, and RP6685) were evaluated both individually and in combination with standard of care and investigational anticancer small molecules within a complex spheroid model of solid tumors. . Complex spheroids include a stromal component modeled by human endothelial cells (HUVEC) and fibroblasts modeled by human mesenchymal stem cells (MSCs). The concentration ranges selected for each drug and investigational agent were based upon clinically achievable concentrations if the clinical Cmax of the agent was known.
Compounds. The drugs and investigational agents: novobiocin (NSC847541), ART-558 (NSC835418), RP-6685 (NSC848927), peposertib (NSC802822), ceralasertib (NSC780249), elimusertib (NSC800525), camonsertib (NSC841442), AZD-1390 (NSC803789), olaparib (NSC753686), talazoparib (NSC767125), rucaparib (NSC756644), sotorasib (NSC818433), MRTX-1133 (NSC836407), SN-38 (NSC673596), topotecan (NSC609699), epotoside (NSC141540), doxorubicin (NSC123127), gemcitabine (NSC613327), 5-fluorouracil (NSC19893), paclitaxel (NSC125973), vemurafenib (NSC761431), MSA-2 (NSC828583), SN-011 (NSC837082), adavosertib (NSC754352), prexasertib (NSC758257), carboplatin (NSC241240) and oxaliplatin (NSC266046), were obtained from the National Cancer Institute (NCI) Developmental Therapeutics Program Chemical Repository (21). The FDA-approved anticancer drug set is available from the Developmental Therapeutics Program at https://dtp.cancer.gov/organization/dscb/obtaining/. […] The stock solutions were prepared in dimethyl sulfoxide (DMSO, Sigma-Aldrich, St. Louis, MO, cat. D2650), except for the platinum compounds which were prepared in saline (Quality Biological, Gaithersburg, MD, cat. 114-055-101), at 800-fold the tested concentration and stored at -70 degrees C prior to their use. All drugs and investigational agents were tested over a range starting from a high concentration at or near the clinical Cmax and decreasing in half-log increments. If the clinical Cmax for an agent had not been determined, the highest concentration tested was 10 microM, except for SN-38, which was tested at a high concentration of 1 microM.
Cell Culture. All cells were maintained in an incubator at 37 degrees C and 5% CO2 with 95% humidity. The PDC lines were cultured according to standard operating procedures established by the NCI PDMR (https://pdmr.cancer.gov). Table 3 of the manuscript, lists the cell lines along with the number of the three cell types plated to form the mct-spheroids and media for tumor cell growth. After thawing, all PDC lines, except 997537-175-T-J1-PDC and 415267-285-R-J2-PDC, were cultured in Matrigel-coated flasks prepared with a working solution of 1X Ham's F-12 nutrient mix, without supplementation (Thermo Fisher Scientific, cat. 11765054), 100 U/mL penicillin-streptomycin (Thermo Fisher Scientific, cat. 15140122), and 2.5% Matrigel (Corning Inc., Corning, NY, cat. 354248) for the first three passages. The two PDC lines 997537-175-T-J1-PDC and 415267-285-R-J2-PDC were cultured on uncoated flasks. The 857933-349-R-J2-PDC line was cultured in 6C/Colon 1B media containing advanced DMEM/F-12 (Thermo Fisher Scientific, cat. 12634028), 10 mM HEPES (Thermo Fisher Scientific, cat. 15630080), 1X GlutaMAX supplement (Thermo Fisher Scientific, cat. 35050061), 0.1 mg/mL primocin (InvivoGen, San Diego, CA, cat. ant-pm-2), 10% defined fetal bovine serum, heat inactivated (HyClone Laboratories Inc., Logan, UT, cat. SH30070.03HI), 50% L-WRN conditioned media (ATCC, cat. CRL-3276), 1.25 mM N-Acetyl-L-cysteine (Sigma-Aldrich, cat. A9165), 10 mM nicotinamide (Sigma-Aldrich, cat. N0636), 1X B-27 supplement (Thermo Fisher Scientific, cat. 17504044), 1X N-2 supplement (Thermo Fisher Scientific, cat. […]

Values joined by “and” are separate entries in the source; they are usually repeats but may differ in a detail not shown here. Identical values can stand only once.
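Further: spheroids exposed to agents for 7 days before viability reading.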
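Wherever viability, T/C is given: percent of DMSO vehicle control viability so 100% = vehicle and 0% = no viable signal.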

As a reminder, the viability, T/C is the result in the treated group divided by that in the control group, in per cent. As a reminder, the IC50 is the concentration at which inhibition is half-maximal. As for `CC1COCCN1c1cc(-c2ccnn2C)c2ccnc(-c3ccn[nH]3)c2n1` (stereo unspecified), the viability, T/C (compound 0.0316 µM) was 94.9% and 97.6% and 88.8%; the viability, T/C (compound 0.1 µM) is 89.1% (2×) and 80.8%; the viability, T/C (compound 0.316 µM) was 71.1% and 68.5% and 77.8%; the viability, T/C (compound 1 µM) was 63.7% and 58.2% and 58.9%; the viability, T/C (compound 3.16 µM) was 49% and 54.1% and 49.1%; the viability, T/C (compound 10 µM) is 56.3% and 58.4% and 50.5%. For the same molecule, the IC50 (curve of compound) is > 10 µM and 5.9 µM.
`Cn1ncnc1[C@H]1c2n[nH]c(=O)c3cc(F)cc(c23)N[C@@H]1c1ccc(F)cc1`: the viability, T/C (compound 0.000316 µM) is 94.3% and 91% and 102%; the viability, T/C (compound 0.001 µM) is 88.8% and 78.8% and 93%; the viability, T/C (compound 0.00316 µM) was 95% and 104% and 108%; the viability, T/C (compound 0.01 µM) was 80.8% and 104% and 106%; the viability, T/C (compound 0.0316 µM) was 83.2% and 89.8% and 97.3%; the viability, T/C (compound 0.1 µM) was 86.5% and 95.5% and 92.5%. In addition, the IC50 (curve of compound) is > 0.1 µM.
As for `CC1COCCN1c1cc(-c2ccnn2C)c2ccnc(-c3ccn[nH]3)c2n1` (stereo unspecified) + Nc1ccc(C#CCN(C(=O)Cc2ncc(C(F)(F)F)cc2C(F)(F)F)c2ccc(F)cc2)nn1, the IC50 reads like this: (curve of first compound, second compound 0.0316 µM) > 10 µM; (curve of first compound, second compound 0.1 µM) > 10 µM; (curve of first compound, second compound 0.316 µM) > 10 µM; (curve of first compound, second compound 1 µM) 6.83 µM; (curve of first compound, second compound 3.16 µM) > 10 µM; (curve of first compound, second compound 10 µM) > 10 µM. Besides, the viability, T/C by setting is: (second compound 0.0316 µM, first compound 0.0316 µM) 88.4%; (second compound 0.0316 µM, first compound 0.1 µM) 91.3%; (second compound 0.0316 µM, first compound 0.316 µM) 80.4%; (second compound 0.0316 µM, first compound 1 µM) 63.5%; (second compound 0.0316 µM, first compound 3.16 µM) 52.9%; (second compound 0.0316 µM, first compound 10 µM) 50%. For the same molecule, the viability, T/C (second compound 0.1 µM, first compound 0.0316 µM) was 90.9%; the viability, T/C (second compound 0.1 µM, first compound 0.1 µM) is 89%; the viability, T/C (second compound 0.1 µM, first compound 0.316 µM) was 75.4%; the viability, T/C (second compound 0.1 µM, first compound 1 µM) was 66.6%; the viability, T/C (second compound 0.1 µM, first compound 3.16 µM) was 52.8%; the viability, T/C (second compound 0.1 µM, first compound 10 µM) was 53.3%. In addition, the viability, T/C reads like this: (second compound 0.316 µM, first compound 0.0316 µM) 102%; (second compound 0.316 µM, first compound 0.1 µM) 90.6%; (second compound 0.316 µM, first compound 0.316 µM) 75.4%; (second compound 0.316 µM, first compound 1 µM) 58.9%; (second compound 0.316 µM, first compound 3.16 µM) 48.5%; (second compound 0.316 µM, first compound 10 µM) 53.9%. The viability, T/C is 101% (second compound 1 µM, first compound 0.0316 µM); 82.8% (second compound 1 µM, first compound 0.1 µM); 71.4% (second compound 1 µM, first compound 0.316 µM); 58% (second compound 1 µM, first compound 1 µM); 52.2% (second compound 1 µM, first compound 3.16 µM); 49.2% (second compound 1 µM, first compound 10 µM). The viability, T/C was 107% (second compound 3.16 µM, first compound 0.0316 µM); 92.7% (second compound 3.16 µM, first compound 0.1 µM); 75.6% (second compound 3.16 µM, first compound 0.316 µM); 55.3% (second compound 3.16 µM, first compound 1 µM); 47.2% (second compound 3.16 µM, first compound 3.16 µM); 57% (second compound 3.16 µM, first compound 10 µM). Besides, the viability, T/C runs as follows: (second compound 10 µM, first compound 0.0316 µM) 114%; (second compound 10 µM, first compound 0.1 µM) 94.3%; (second compound 10 µM, first compound 0.316 µM) 80.9%; (second compound 10 µM, first compound 1 µM) 58%; (second compound 10 µM, first compound 3.16 µM) 64.5%; (second compound 10 µM, first compound 10 µM) 49.9%.

The values are drawn from PubChem BioAssay AID1963835 (Molecular Pharmacology Branch, DTP, NCI, 2024).
